# Test results: article PMC7665585, “Antidepressive effect of an inward rectifier K^+ channel blocker peptide, tertiapin-RQ” (PLoS ONE, 2020)
# Bridge positions count the residues as written; N and C are the ends. Ends that are not written are not given here. Peptide text beside a SMILES is read from it.
# Target: T1, rat ROMK (Rattus norvegicus, UniProt P35560)
# T1 construct: expressed in transfected cells; host or cells: 293T cell line 208-4 (lentiviral transduction, GFP coexpressed)
# T1 sequence (P35560 1-391): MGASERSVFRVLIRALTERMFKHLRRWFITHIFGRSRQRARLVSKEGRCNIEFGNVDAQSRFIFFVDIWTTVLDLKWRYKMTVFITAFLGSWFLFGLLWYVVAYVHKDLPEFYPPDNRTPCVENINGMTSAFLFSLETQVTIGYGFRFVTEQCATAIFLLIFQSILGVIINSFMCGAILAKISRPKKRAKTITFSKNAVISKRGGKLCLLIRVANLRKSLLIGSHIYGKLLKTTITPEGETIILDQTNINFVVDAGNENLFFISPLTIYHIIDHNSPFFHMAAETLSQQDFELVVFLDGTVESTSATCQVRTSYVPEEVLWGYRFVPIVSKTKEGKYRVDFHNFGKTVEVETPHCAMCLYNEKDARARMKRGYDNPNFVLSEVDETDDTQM
# Assay: Whole-cell patch-clamp of ROMK currents in 208–4 cells
# Assay type: cell-based
# Settings: blockade at 1 μM estimated from fitted Hill curve (four parameters), whole-cell conductance, n = 3–6
# Excerpt: The cDNAs for rat ROMK and mouse GIRK1, 2, and 4 were generously donated by Drs Mikio Hayashi (Kansai Medical University) and David Weaver (Vanderbilt University). The ROMK channels were stably expressed by a cell line, 208–4, which was transduced with lentiviral vectors coexpressing the channel and green fluorescent protein (GFP) as described previously. The GIRK genes, cloned in a pCMV6 plasmid (Origene Technologies Inc, Rockville, MD), were transiently expressed in 293T cells with calcium phosphate transfection. GIRK channel currents were recorded 24 h after transfection.
# Cells grown on small cover glasses (3 × 18 mm) were placed in a recording chamber. Whole-cell currents were recorded in Tyrode solution using an Axopatch 200B amplifier (Axon Instruments, Foster City, CA) at 25°C. Tyrode solution contained (in mM): NaCl 140, KCl 5.4, NaH2PO4 0.33, CaCl2 2, MgCl2 1, HEPES 5, and glucose 5.5 (pH 7.4 adjusted with NaOH). High K^+ Tyrode solution (KCL 50 mM, NaCl 95 mM, and others were the same as standard Tyrode solution) was used for the recording of GIRK channels. Patch pipettes pulled from borosilicate glass (Narishige, Tokyo, Japan) were filled with an internal solution containing (in mM): K-aspartate 66, KCl 71.5, KH2PO4 1, EGTA 5, HEPES 5, and MgATP 3 (pH 7.4 adjusted with KOH). Recordings were digitized at 10 kHz, and low-pass filtered at 2 kHz. ROMK, Kir2.1, and GIRK currents were evoked with step pulses of 400 msec from -150 mV to 10 mV in 10 mV increments from a holding potential of -70 mV. Whole-cell currents were recorded 60 sec after the peptide application and those from 100 to 300 msec of the step pulses were averaged. Liquid junction potential or capacitive transient was not corrected or compensated. Whole-cell conductance was calculated as the slope of the current-voltage (I-V) relationship from -140 mV to -100 mV and normalized to the initial value (0 μM TPN), in which BaCl2-resistant current was subtracted and indicted as a percentage.
row,Compound,"Activity (ROMK channel blocking activity, percentage of blockade at 1 μM)"
1,TPN 11–18 [Peptide 14],"- (-, <20%)"
2,TPN-RQ(Ins9I) [Peptide 54],"- (-, <20%)"
3,TPN 12–19 [Peptide 15],"- (-, <20%)"
4,TPN 3–10 [Peptide 6],"- (-, <20%)"
5,TPN 13–20 [Peptide 16],"- (-, <20%)"
6,TPN 2–9 [Peptide 5],"- (-, <20%)"

# Same assay, conditions: blockade at 1 μM estimated from fitted Hill curve (four parameters), whole-cell conductance, n = 3–6, read-out: Activity (ROMK channel blocking activity, percentage of blockade at 1 μM)
row,Compound,inhibition at 1 µM [%]
1,"CC[C@H](C)[C@@H]1NC(=O)[C@H](CCCNC(=N)N)NC(=O)[C@H](CCCNC(=N)N)NC(=O)[C@H](CC(N)=O)NC(=O)[C@@H](N)CSSC[C@@H](C(N)=O)NC(=O)[C@H](CCC(N)=O)NC(=O)[C@H](Cc2c[nH]cn2)NC(=O)[C@@H]2CCCN2C(=O)[C@H]([C@@H](C)CC)NC1=O [Peptide 35, TPN-RQ 5–14] (H-CNRRIIPHQC-NH2; disulfide 1-10)",< 20
2,"CC[C@H](C)[C@@H]1NC(=O)[C@H](CCCNC(=N)N)NC(=O)[C@H](CCCNC(=N)N)NC(=O)[C@H](CC(N)=O)NC(=O)[C@@H](NC(=O)[C@@H](N)CC(N)=O)CSSC[C@@H](C(=O)N[C@@H](Cc2c[nH]c3ccccc23)C(=O)N[C@@H](CCCCN)C(=O)N[C@@H](CCCCN)C(N)=O)NC(=O)[C@H](CCC(N)=O)NC(=O)[C@H](Cc2c[nH]cn2)NC(=O)[C@@H]2CCCN2C(=O)[C@H]([C@@H](C)CC)NC1=O [Peptide 39, TPN-RQ 4–17] (H-NCNRRIIPHQCWKK-NH2; disulfide 2-11)",< 20
3,"CC[C@H](C)[C@@H]1NC(=O)[C@H](CCCNC(=N)N)NC(=O)[C@H](CC(N)=O)NC(=O)[C@@H](NC(=O)[C@H](CC(N)=O)NC(=O)[C@H](CO)NC(=O)[C@H](CC(C)C)NC(=O)[C@H](C)N)CSSC[C@@H](C(=O)NCC(=O)N[C@@H](CCCCN)C(=O)N[C@@H](CCCCN)C(N)=O)NC(=O)[C@H](CCCCN)NC(=O)[C@H](CCCCN)NC(=O)[C@H](Cc2c[nH]c3ccccc23)NC(=O)[C@H](CO)NC(=O)[C@H](CCC(N)=O)NC(=O)[C@H](Cc2c[nH]cn2)NC(=O)[C@@H]2CCCN2C(=O)[C@H]([C@@H](C)CC)NC(=O)[C@H]([C@@H](C)CC)NC1=O [Peptide 49, TPN-Q(C3S/C14S)] (H-ALSNCNRIIIPHQSWKKCGKK-NH2; disulfide 5-18)",< 20
4,"RRIAPHQK-NH2 [Peptide 26, TPN-RQ 7-13(I10A) + K]",< 20
5,"IIPHMCWK-NH2 [Peptide 12, TPN 9–16]",< 20
6,"RRIIPAQK-NH2 [Peptide 28, TPN-RQ 7-13(H12A) + K]",< 20
7,"CC[C@H](C)[C@@H]1NC(=O)[C@H](C)NC(=O)[C@H](CCCNC(=N)N)NC(=O)[C@H](CC(N)=O)NC(=O)[C@@H]2CSSC[C@@H](C(=O)NCC(=O)N[C@@H](CCCCN)C(=O)N[C@@H](CCCCN)C(N)=O)NC(=O)[C@H](CCCCN)NC(=O)[C@H](CCCCN)NC(=O)[C@H](Cc3c[nH]c4ccccc34)NC(=O)[C@H](CSSC[C@H](NC(=O)[C@H](CC(C)C)NC(=O)[C@H](C)N)C(=O)N[C@@H](CC(N)=O)C(=O)N2)NC(=O)[C@H](CCC(N)=O)NC(=O)[C@H](Cc2c[nH]cn2)NC(=O)[C@@H]2CCCN2C(=O)[C@H]([C@@H](C)CC)NC1=O [Peptide 59, TPN-RQ(R8A)] (H-ALCNCNRAIIPHQCWKKCGKK-NH2; disulfide 3-14, 5-18)",60 to 80
8,"CC[C@H](C)[C@@H]1NC(=O)[C@H](CCCNC(=N)N)NC(=O)[C@H](CCCNC(=N)N)NC(=O)[C@H](CC(N)=O)NC(=O)[C@@H](NC(=O)[C@H](CC(N)=O)NC(=O)[C@H](CO)NC(=O)[C@H](CC(C)C)NC(=O)[C@H](C)N)CSSC[C@@H](C(=O)NCC(=O)N[C@@H](CCCCN)C(=O)N[C@@H](CCCCN)C(N)=O)NC(=O)[C@H](CCCCN)NC(=O)[C@H](CCCCN)NC(=O)[C@H](Cc2c[nH]c3ccccc23)NC(=O)[C@H](CO)NC(=O)[C@H](CCC(N)=O)NC(=O)[C@H](Cc2c[nH]cn2)NC(=O)[C@@H]2CCCN2C(=O)[C@H]([C@@H](C)CC)NC1=O [Peptide 50, TPN-RQ(C3S/C14S)] (H-ALSNCNRRIIPHQSWKKCGKK-NH2; disulfide 5-18)",< 20
9,"ARIIPHQK-NH2 [Peptide 23, TPN-RQ 7-13(R7A) + K]",< 20
10,"RAIIPHQK-NH2 [Peptide 24, TPN-RQ 7-13(R8A) + K]",< 20
11,"RRIIPHAK-NH2 [Peptide 29, TPN-RQ 7-13(Q13A) + K]",< 20
12,"CC[C@H](C)[C@@H]1NC(=O)[C@H](CCCNC(=N)N)NC(=O)[C@H](CCCNC(=N)N)NC(=O)[C@H](CC(N)=O)NC(=O)[C@@H](N)CSSC[C@@H](C(=O)N[C@@H](Cc2c[nH]c3ccccc23)C(=O)N[C@@H](CCCCN)C(=O)N[C@@H](CCCCN)C(N)=O)NC(=O)[C@H](CCC(N)=O)NC(=O)[C@H](CCCCN)NC(=O)[C@@H]2CCCN2C(=O)[C@H]([C@@H](C)CC)NC1=O [Peptide 38, TPN-RQ 5-17(H12K)] (H-CNRRIIPKQCWKK-NH2; disulfide 1-10)",< 20
13,"NCNRIIIP-NH2 [Peptide 7, TPN 4–11]",< 20
14,"CC[C@H](C)[C@@H]1NC(=O)[C@H](C)NC(=O)[C@H](C)NC(=O)[C@H](CC(N)=O)NC(=O)[C@@H]2CSSC[C@@H](C(=O)NCC(=O)N[C@@H](CCCCN)C(=O)N[C@@H](CCCCN)C(N)=O)NC(=O)[C@H](CCCCN)NC(=O)[C@H](CCCCN)NC(=O)[C@H](Cc3c[nH]c4ccccc34)NC(=O)[C@H](CSSC[C@H](NC(=O)[C@H](CC(C)C)NC(=O)[C@H](C)N)C(=O)N[C@@H](CC(N)=O)C(=O)N2)NC(=O)[C@H](CCC(N)=O)NC(=O)[C@H](Cc2c[nH]cn2)NC(=O)[C@@H]2CCCN2C(=O)[C@H]([C@@H](C)CC)NC1=O [Peptide 58, TPN-RQ(R7A/R8A)] (H-ALCNCNAAIIPHQCWKKCGKK-NH2; disulfide 3-14, 5-18)",< 20
15,"CC[C@H](C)[C@@H]1NC(=O)[C@H](CCCNC(=N)N)NC(=O)[C@H](CCCNC(=N)N)NC(=O)[C@H](C)NC(=O)[C@@H]2CSSC[C@@H](C(=O)NCC(=O)N[C@@H](CCCCN)C(=O)N[C@@H](CCCCN)C(N)=O)NC(=O)[C@H](CCCCN)NC(=O)[C@H](CCCCN)NC(=O)[C@H](Cc3c[nH]c4ccccc34)NC(=O)[C@H](CSSC[C@H](NC(=O)[C@H](CC(C)C)NC(=O)[C@H](C)N)C(=O)N[C@@H](CC(N)=O)C(=O)N2)NC(=O)[C@H](CCC(N)=O)NC(=O)[C@H](Cc2c[nH]cn2)NC(=O)[C@@H]2CCCN2C(=O)[C@H]([C@@H](C)CC)NC1=O [Peptide 57, TPN-RQ(N6A)] (H-ALCNCARRIIPHQCWKKCGKK-NH2; disulfide 3-14, 5-18)",60 to 80
16,"CC[C@H](C)[C@@H]1NC(=O)[C@H](CCCNC(=N)N)NC(=O)[C@H](CCCNC(=N)N)NC(=O)[C@H](CC(N)=O)NC(=O)[C@@H]2CSSC[C@@H](C(=O)NCC(=O)N[C@@H](CCCCN)C(=O)N[C@@H](C)C(N)=O)NC(=O)[C@H](CCCCN)NC(=O)[C@H](CCCCN)NC(=O)[C@H](Cc3c[nH]c4ccccc34)NC(=O)[C@H](CSSC[C@H](NC(=O)[C@H](CC(C)C)NC(=O)[C@H](C)N)C(=O)N[C@@H](CC(N)=O)C(=O)N2)NC(=O)[C@H](CCC(N)=O)NC(=O)[C@H](Cc2c[nH]cn2)NC(=O)[C@@H]2CCCN2C(=O)[C@H]([C@@H](C)CC)NC1=O [Peptide 69, TPN-RQ(K21A)] (H-ALCNCNRRIIPHQCWKKCGKA-NH2; disulfide 3-14, 5-18)",40 to 60
17,"CC[C@H](C)[C@@H]1NC(=O)[C@H](CCCNC(=N)N)NC(=O)[C@H](CCCNC(=N)N)NC(=O)[C@H](CC(N)=O)NC(=O)[C@@H]2CSSC[C@@H](C(=O)NCC(=O)N[C@@H](CCCCN)C(=O)N[C@@H](CCCCN)C(N)=O)NC(=O)[C@H](CCCCN)NC(=O)[C@H](CCCCN)NC(=O)[C@H](Cc3c[nH]c4ccccc34)NC(=O)[C@H](CSSC[C@H](N)C(=O)N[C@@H](CC(N)=O)C(=O)N2)NC(=O)[C@H](CCC(N)=O)NC(=O)[C@H](Cc2c[nH]cn2)NC(=O)[C@@H]2CCCN2C(=O)[C@H]([C@@H](C)CC)NC1=O [Peptide 70, TPN-RQ(Δ1A/Δ2L)] (H-CNCNRRIIPHQCWKKCGKK-NH2; disulfide 1-12, 3-16)",60 to 80

# Same assay, conditions: whole-cell recordings
row,Compound,ROMK blocking activity (in words)
1,TPN-RQ(Ins9I) [Peptide 54],abolished the activity
